Laboratory results as given in US20260306641A1, “HELICASE DEGRADERS” (priority 2023, published 2026).

What was measured:
[1] = tested on: T1, human CMG helicase (hCMG); assay: hCMG helicase fork-unwinding (strand displacement) assay; type: biochemical
T1 construct: made in house; host or cells: High Five insect cells, baculovirus (11 viruses co-infected)
Procedure: The human CMG helicase was purified following the established and validated protocol of Hurwitz and colleagues(19,20), with minor modifications. A detailed description of the approach is shown here, to allow for comparisons to the methods described by the Hurwitz group.
High Five insect cells (2-3 million cells/ml, 1.5 L), were in cultured in a shaking incubator at 27° C. in suspension with ESF921 serum free medium (Expression Systems, CA; cat. #96-001-01), then co-infected for 60 hrs with 11 baculoviruses expressing human 6His2Flag-Cdc45, the human MCM hexamer (Mcm2, Mcm3, Mcm4, Mem5, Mcm6, Mcm7), and human GINS (GST-Sld5, Psf3, Psf2, and Psf1). Each virus was infected at an MOI of ~10 from individual virus stocks. Infected cells were harvested by centrifugation at 650×g for 5 min at 4° C., washed with cold PBS, frozen on dry ice, and stored at −80° C. until use. The cell pellet (~20 mL) was thawed on ice, resuspended in 45 ml Hypotonic Buffer [20 mM Hepes-NaOH (pH 7.5), 5 mM KCl, 1.5 mM MgCl2] with protease inhibitors (1 mM [COMPOUND LEFT OUT], 1 mM Benzamidine, 0.15 μM Aprotinin, 4 μM Leupeptin, and 1 μM Antipain), and kept on ice for 10 min before lysing by Dounce homogenization (tight fitting, 60 strokes). The cell extract was adjusted to 0.42 M potassium acetate and centrifuged at 43,000×g for 1 hr at 4° C. The cleared lysate was mixed with 0.75 ml glutathione beads (cat. #17-0756-05; GE Healthcare) pre-equilibrated with FEQ buffer [20 mM Hepes-NaOH (pH 7.5), 0.42 M potassium acetate, 5 mM KCl, 1.5 mM MgCl2] and incubated by rotation at 4° C. overnight. Following centrifugation at 290×g at 4° C., the bound glutathione beads were washed four times (15 min each wash) with 40 ml of FW buffer [20 mM Hepes-NaOH (pH 7.5), 0.42 M potassium acetate, 1 mM DTT, 1 mM EDTA, 0.01% NP40, 10% glycerol (vol/vol) with protease inhibitors as above] containing protease inhibitors (as above). Bound proteins were eluted at 4° C. three times (1 hr each elution) with 3.5 ml Q buffer [20 mM Hepes-NaOH (pH 7.5), 1 mM DTT, 1 mM EDTA, 0.01% NP40, 10% glycerol (vol/vol), and protease inhibitors as above] containing 0.15 M potassium acetate and 20 mM reduced glutathione. The eluted fractions were combined and applied to a HiTrap Q-Sepharose FF column (HiTrap Q FF 1 mL, cat. #17505301, Cytiva), pre-equilibrated 3× with 5 ml of Q buffer containing 0.15 M, 0.75 M, 0.15M potassium acetate, in sequence. The Q-Sepharose FF column was washed with 10 ml of FW buffer containing protease inhibitors (as above). The proteins were eluted with 10 ml of Q buffer containing 0.75 M potassium acetate. The eluted fraction was mixed with 0.15 ml of anti-Flag M2 affinity gel/beads and incubated while rotating at 4° C. overnight. After centrifugation at 290×g for 5 min at 4° C., the beads were washed three times with 10 ml PreScission buffer [50 mM Tris-HCl (pH 7.5), 0.15 M NaCl, 1 mM DTT, 1 mM EDTA] for 15 min at 4° C., and eluted at 4° C. three times (1 hr each elution) with 0.2 ml PreScission enzyme buffer containing 0.2 mg/ml 3×-Flag peptides. The combined eluates were incubated with 20 Units of PreScission Protease (GE Healthcare) and 0.1 mL glutathione beads for 4 hr at 4° C. The supernatant was layered onto a 15-40% glycerol gradient [25 mM Tris-HCl (pH 7.5), 50 mM NaCl, 1 mM DTT, 1 mM EDTA, 0.01% NP40, protease inhibitors as above] in a 5 mL ultra-centrifugation tube and centrifuged at 260,000×g for 14 hr at 4° C. Glycerol fractions (0.15 mL each fraction) were collected from bottom of tube and stored at −80° C. until use. Typically, fractions 6-9 contained complete hCMG (~750-800 kDa) and co-migrated with thyroglobulin.
Helicase fork-unwinding assays were performed at 37° C. for 1 hr in 20 μL reaction volumes using 2-4 μl of hCMG (~15-30 fmol), in a buffer consisting of 25 mM Hepes-NaOH (pH 7.5), 5 mM NaCl, 0.5 mM ATP, 10 mM magnesium acetate, 1 mM DTT, 0.1 mg/ml bovine serum albumin (BSA), and ~10 fmol of radiolabeled DNA forks (20). […]

143B cells = assay: CellTiter-Glo viability, 143B; type: cell-based, human; settings: 72 hr
Procedure: FIGS. 7A-7C depict that CMGi induce DNA damage and selectively reduce tumor cell viability. (FIG. 7A) Cell Titer Glo viability assays for CA1/CMGi sensitivity were performed on 143B (OS), Psn1 (PDAC), and H460 (NSCLC) tumor lines. Novobiocin was tested against 143B cells as a comparison. (FIG. 7B) Immunoblot of chromatin-bound proteins (as indicated) from asynchronous 143B OS cells treated with 10 μM novobiocin or increasing concentrations of CA1 for 24 hrs. (FIG. 7C) Immunoblot of total proteins from Psn1, H460, 143B, and HaCaT cells treated with 5 μM CA1/CMGi or DMSO/novobiocin controls, or HaCaT treated with 15 μM CA1/CMGi (right side). The Psn1 and H460 cells were treated for 24 hrs, and 143B and HaCaT cells were treated for 48 hrs. Probing of blots was done with anti-gamma-H2AX (DNA damage signal) or anti-cleaved-Parp (apoptotic indicator). Anti-GAPDH is a loading control.
Cell viability determinations were performed using CellTiter-Glo Assays (Promega; cat #G7572). Cells were seeded in 96-well plates at a density of ~3×10^3 cells/well and treated with drugs for 72 hr, after which the cells were processed for viability using CellTiter-Glo reagent according to the instructions of the manufacturer. Each drug concentration test was performed using four replicates, and results averaged and plotted on graphs, +/−1 s.d.

T1 sequence (P49736 whole entry): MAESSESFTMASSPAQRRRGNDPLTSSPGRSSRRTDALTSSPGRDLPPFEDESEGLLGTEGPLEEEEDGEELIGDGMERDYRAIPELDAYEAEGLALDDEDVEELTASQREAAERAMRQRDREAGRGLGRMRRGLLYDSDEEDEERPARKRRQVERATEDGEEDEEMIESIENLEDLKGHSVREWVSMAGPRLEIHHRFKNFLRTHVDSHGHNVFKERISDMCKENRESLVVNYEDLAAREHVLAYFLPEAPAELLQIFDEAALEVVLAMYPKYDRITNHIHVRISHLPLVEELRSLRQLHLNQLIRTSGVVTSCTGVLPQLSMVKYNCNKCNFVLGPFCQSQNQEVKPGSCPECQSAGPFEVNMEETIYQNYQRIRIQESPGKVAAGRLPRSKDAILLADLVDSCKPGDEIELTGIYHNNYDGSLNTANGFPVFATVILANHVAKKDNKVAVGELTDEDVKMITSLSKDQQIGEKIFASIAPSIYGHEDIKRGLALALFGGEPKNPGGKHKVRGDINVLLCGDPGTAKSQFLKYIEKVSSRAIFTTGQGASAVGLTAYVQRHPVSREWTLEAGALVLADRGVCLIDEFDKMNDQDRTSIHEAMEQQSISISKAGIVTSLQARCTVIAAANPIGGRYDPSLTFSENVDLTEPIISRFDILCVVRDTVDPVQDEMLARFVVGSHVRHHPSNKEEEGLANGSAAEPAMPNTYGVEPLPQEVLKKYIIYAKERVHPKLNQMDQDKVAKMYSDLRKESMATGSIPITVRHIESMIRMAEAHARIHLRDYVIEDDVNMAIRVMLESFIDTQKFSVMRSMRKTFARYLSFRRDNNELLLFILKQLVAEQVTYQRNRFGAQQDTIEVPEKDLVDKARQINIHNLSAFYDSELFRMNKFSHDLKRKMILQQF
T1 sequence (P25205 whole entry, further chain): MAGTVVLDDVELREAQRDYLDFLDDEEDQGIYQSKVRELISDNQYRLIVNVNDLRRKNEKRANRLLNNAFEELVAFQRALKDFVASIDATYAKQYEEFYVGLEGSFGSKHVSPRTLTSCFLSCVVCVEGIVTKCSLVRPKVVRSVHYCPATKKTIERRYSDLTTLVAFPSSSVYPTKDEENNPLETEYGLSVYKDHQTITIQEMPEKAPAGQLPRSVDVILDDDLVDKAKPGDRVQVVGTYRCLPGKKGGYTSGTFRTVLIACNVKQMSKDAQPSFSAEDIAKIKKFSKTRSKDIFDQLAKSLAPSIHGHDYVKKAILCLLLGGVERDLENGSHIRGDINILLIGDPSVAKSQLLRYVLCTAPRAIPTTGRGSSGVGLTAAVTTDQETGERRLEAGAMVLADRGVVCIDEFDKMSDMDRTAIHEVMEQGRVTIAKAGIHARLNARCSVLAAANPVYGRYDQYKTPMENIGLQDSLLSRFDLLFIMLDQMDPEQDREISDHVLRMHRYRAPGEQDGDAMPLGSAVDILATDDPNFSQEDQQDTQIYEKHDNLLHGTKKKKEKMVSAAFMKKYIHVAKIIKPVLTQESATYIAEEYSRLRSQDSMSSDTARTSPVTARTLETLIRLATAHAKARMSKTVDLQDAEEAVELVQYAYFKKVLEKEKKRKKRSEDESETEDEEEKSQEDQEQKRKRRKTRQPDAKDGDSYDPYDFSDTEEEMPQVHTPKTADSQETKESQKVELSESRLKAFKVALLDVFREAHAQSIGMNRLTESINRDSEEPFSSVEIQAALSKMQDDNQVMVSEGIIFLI
T1 sequence (P33991 whole entry, further chain): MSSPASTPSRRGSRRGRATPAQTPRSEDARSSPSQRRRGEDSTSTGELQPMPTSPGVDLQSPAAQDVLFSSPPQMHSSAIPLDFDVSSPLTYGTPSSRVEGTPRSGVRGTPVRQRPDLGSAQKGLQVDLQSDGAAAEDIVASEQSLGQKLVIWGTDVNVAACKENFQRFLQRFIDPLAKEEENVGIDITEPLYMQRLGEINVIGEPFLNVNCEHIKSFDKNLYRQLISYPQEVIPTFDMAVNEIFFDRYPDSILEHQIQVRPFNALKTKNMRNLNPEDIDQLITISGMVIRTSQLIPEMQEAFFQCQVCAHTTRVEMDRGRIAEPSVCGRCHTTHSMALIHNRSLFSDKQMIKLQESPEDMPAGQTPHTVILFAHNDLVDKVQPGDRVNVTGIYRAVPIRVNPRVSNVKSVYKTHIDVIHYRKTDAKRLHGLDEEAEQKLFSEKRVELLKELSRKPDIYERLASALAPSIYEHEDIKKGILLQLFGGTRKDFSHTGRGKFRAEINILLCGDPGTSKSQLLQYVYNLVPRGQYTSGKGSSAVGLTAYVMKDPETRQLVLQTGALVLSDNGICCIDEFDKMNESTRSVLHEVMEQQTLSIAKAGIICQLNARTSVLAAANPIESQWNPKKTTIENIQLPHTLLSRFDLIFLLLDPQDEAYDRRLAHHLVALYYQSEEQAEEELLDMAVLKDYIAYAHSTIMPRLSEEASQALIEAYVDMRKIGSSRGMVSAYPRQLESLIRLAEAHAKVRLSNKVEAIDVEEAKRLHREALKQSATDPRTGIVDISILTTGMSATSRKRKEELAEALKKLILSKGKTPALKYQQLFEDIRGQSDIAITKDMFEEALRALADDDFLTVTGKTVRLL
T1 sequence (P33992 whole entry, further chain): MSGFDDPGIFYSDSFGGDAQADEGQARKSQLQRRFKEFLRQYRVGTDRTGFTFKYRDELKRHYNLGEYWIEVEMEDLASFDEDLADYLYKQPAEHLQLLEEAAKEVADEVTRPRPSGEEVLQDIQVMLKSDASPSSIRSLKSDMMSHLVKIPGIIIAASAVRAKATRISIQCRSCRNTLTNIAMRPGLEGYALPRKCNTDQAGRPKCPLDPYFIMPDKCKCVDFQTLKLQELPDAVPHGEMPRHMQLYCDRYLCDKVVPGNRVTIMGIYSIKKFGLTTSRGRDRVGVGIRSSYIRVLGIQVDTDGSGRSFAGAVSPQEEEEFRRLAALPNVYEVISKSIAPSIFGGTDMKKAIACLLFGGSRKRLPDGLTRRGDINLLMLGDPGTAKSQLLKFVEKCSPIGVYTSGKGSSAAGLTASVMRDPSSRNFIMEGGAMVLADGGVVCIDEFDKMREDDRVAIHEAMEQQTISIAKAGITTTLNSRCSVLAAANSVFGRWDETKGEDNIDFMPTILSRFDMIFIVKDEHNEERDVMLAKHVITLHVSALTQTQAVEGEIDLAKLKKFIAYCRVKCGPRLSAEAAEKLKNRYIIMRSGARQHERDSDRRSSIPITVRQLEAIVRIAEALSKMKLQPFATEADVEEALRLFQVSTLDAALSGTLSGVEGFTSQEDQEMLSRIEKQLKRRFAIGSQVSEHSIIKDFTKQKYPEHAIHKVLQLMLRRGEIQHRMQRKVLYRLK
T1 sequence (Q14566 whole entry, further chain): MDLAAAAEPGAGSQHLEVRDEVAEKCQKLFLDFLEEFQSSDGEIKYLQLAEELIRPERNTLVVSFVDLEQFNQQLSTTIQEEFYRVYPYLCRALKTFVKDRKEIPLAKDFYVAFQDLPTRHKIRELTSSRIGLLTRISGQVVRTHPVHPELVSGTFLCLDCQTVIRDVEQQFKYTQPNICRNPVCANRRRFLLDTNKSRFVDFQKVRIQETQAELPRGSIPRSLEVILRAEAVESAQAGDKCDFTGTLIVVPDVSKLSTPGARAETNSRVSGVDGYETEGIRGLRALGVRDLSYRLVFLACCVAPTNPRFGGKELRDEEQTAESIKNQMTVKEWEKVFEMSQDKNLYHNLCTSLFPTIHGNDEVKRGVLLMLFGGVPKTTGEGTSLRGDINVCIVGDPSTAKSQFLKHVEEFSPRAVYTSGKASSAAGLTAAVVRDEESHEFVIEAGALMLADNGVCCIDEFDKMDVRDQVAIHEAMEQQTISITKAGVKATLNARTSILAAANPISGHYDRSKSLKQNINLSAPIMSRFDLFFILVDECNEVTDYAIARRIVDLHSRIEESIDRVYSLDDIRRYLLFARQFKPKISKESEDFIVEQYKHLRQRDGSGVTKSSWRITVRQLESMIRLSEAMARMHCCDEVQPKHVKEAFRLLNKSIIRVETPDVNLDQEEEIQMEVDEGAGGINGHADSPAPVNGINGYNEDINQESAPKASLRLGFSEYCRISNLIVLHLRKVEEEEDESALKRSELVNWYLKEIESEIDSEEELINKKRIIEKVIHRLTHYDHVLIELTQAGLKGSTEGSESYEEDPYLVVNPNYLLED
T1 sequence (P33993 whole entry, further chain): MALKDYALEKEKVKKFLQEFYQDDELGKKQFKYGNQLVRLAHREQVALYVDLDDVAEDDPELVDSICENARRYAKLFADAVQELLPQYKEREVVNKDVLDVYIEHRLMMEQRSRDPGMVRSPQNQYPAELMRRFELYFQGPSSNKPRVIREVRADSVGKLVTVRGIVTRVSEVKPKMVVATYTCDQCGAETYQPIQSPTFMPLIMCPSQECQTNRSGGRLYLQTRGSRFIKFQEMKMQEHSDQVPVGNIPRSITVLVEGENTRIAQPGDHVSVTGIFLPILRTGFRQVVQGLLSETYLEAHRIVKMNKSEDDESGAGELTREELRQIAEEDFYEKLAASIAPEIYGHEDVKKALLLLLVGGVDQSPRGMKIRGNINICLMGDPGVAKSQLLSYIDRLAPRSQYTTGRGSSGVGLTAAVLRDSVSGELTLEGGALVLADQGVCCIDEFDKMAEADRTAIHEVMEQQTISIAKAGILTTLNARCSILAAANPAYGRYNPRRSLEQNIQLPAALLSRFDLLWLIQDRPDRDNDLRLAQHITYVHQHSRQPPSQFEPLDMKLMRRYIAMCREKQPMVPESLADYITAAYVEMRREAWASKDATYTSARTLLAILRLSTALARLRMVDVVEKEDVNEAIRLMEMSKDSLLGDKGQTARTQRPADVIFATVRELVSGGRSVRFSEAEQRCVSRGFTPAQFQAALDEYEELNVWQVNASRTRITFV

Structure (SMILES) | hCMG helicase inhibition in secondary strand-displacement assay ([1]; 500 μM compound) | inhibition of hCMG helicase activity, SAR set ([1]; 500 μM compound) | hCMG helicase activity inhibition ([1]; fork-unwinding, ~15 fmol hCMG, 0.5 mM ATP) [%] | mode of inhibition of hCMG helicase activity ([1]; role: inhibitor, CA1 2.5 μM, increasing ATP) | effect on tumor cell viability (143B cells)
CO[C@@H]1[C@@H](OC(=O)c2ccc(C)[nH]2)[C@@H](O)[C@H](Oc2ccc3c(O)c(NC(=O)c4c[nH]c(C(=O)Nc5c(O)c6ccc(O[C@@H]7OC(C)(C)[C@H](OC)[C@@H](OC(=O)c8ccc(C)[nH]8)[C@H]7O)c(C)c6oc5=O)c4C)c(=O)oc3c2C)OC1(C)C [CA1] | effective hCMG helicase inhibitors | potently inhibit the hCMG | 100 | classic ATP-competitive mechanism | –
CO[C@@H]1[C@@H](OC(N)=O)[C@@H](O)[C@H](Oc2ccc3c(O)c(NC(=O)c4ccc(O)c(CC=C(C)C)c4)c(=O)oc3c2C)OC1(C)C [novobiocin] | – | only a small level of inhibition | – | – | little effect until higher concentrations are tested
